# System: primary normal human melanocytes
# Test: Melanogenesis assay (14C-tyrosine incorporation) after 3 days of incubation with test substance
# Format: cell-based
# Settings: 3 days incubation
# Description: (§1) A melanogenesis assay was carried out after 3 days of incubation of primary normal human melanocytes with test substance compared to control. The figures listed in the table give the melanogenesis rates (measured as ^14C-tyrosine incorporation) based on the untreated control (=100%). It results from this that the melanogenesis, i.e., the process of melanine synthesis rises to 217%, 128% or 121%, when the melanocytes are cultivated in the presence of the (2E/Z,6E/Z)-3,7,11-trimethyldodeca-2,6,10-trienal (n=3).
# as §1, with “135%” for “217%, 128%”, “113%” for “121%,”, “N-[(1E/Z,2E/Z)-3,7-dimethylocta-2,6-dien-1-ylidene]butane-1-amine (n=2).” for “(2E/Z,6E/Z)-3,7,11-trimethyldodeca-2,6,10-trienal (n=3).”
# as §1, with “137%” for “217%, 128%”, “127%” for “121%,”, “(2E/Z)-3,7-dimethylocta-2,6-dienal (n=2-6).” for “(2E/Z,6E/Z)-3,7,11-trimethyldodeca-2,6,10-trienal (n=3).”
# as §1, with “131%, 130%” for “217%, 128%”, “117%” for “121%,”, “(1E/Z,2E/Z)-3,7-dimethylocta-2,6-dienal oxime (n=2).” for “(2E/Z,6E/Z)-3,7,11-trimethyldodeca-2,6,10-trienal (n=3).”
structure (smiles),measurement,setting,value
"CC(C)=CCC/C(C)=C/C=N/O [(1E/Z,2E/Z)-3,7-dimethylocta-2,6-dienal oxime]","melanogenesis rate (measured as 14C-tyrosine incorporation) based on the untreated control (=100%), X transverse","0.01 μg/ml, n=2",117%
same,"melanogenesis rate (measured as 14C-tyrosine incorporation) based on the untreated control (=100%), X transverse","0.1 μg/ml, n=2",130%
same,"melanogenesis rate (measured as 14C-tyrosine incorporation) based on the untreated control (=100%), X transverse","1 μg/ml, n=2",131%
"CC(C)=CCC/C(C)=C/C=O [(2E/Z)-3,7-dimethylocta-2,6-dienal]","melanogenesis rate (measured as 14C-tyrosine incorporation) based on the untreated control (=100%), X transverse","0.001 μg/ml, n=2-6",127%
same,"melanogenesis rate (measured as 14C-tyrosine incorporation) based on the untreated control (=100%), X transverse","0.01 μg/ml, n=2-6",137%
"CC(C)=CCC/C(C)=C/CC/C(C)=C/C=O [(2E/Z,6E/Z)-3,7,11-trimethyldodeca-2,6,10-trienal]","melanogenesis rate (measured as 14C-tyrosine incorporation) based on the untreated control (=100%), X transverse","0.1 μg/ml (first column so headed), n=3",128%
same,"melanogenesis rate (measured as 14C-tyrosine incorporation) based on the untreated control (=100%), X transverse","0.1 μg/ml (second column so headed), n=3",121%
same,"melanogenesis rate (measured as 14C-tyrosine incorporation) based on the untreated control (=100%), X transverse","1 μg/ml, n=3",217%
"CCCC/N=C/C=C(\C)CCC=C(C)C [N-[(1E/Z,2E/Z)-3,7-dimethylocta-2,6-dien-1-ylidene]butane-1-amine]","melanogenesis rate (measured as 14C-tyrosine incorporation) based on the untreated control (=100%), X transverse","0.1 μg/ml, n=2",113%
same,"melanogenesis rate (measured as 14C-tyrosine incorporation) based on the untreated control (=100%), X transverse","1 μg/ml, n=2",135%

# — patent US20090092642A1, “Skin and/or Hair Products, Containing Compounds With an Isoprenoid Structure” (BEIERSDORF AG, priority 2004, published 2009)
